Source: patent publication US6794356B2, “Fabric softening composition comprising a malodor controlling agent” (The Procter & Gamble Company, priority 2000, dated 2004)

Conditions: typical approximate values; salt added to the solution

Compound | cloud point of 1% solution of Neodol 91-8
O=S(=O)([O-])[O-].[Ca+2] [calcium sulfate] | no change
[Cl-].[Na+] [sodium chloride] | 63-66.9 °C
